Measurements from patent publication US20140018537A1, “GPR119 AGONIST” (NIPPON CHEMIPHAR CO., LTD., priority 2008, published 2014).

Test system: not given
Assay: not given
Conditions: not given

| melting point [°C] | SMILES |
| --- | --- |
| 154 to 157 | CCCCCc1cnc(N2CCC(c3ccc(COc4ccc(S(C)(=O)=O)cc4)nc3)CC2)nc1 [Example 50, 2-[4-[2-(4-Methanesulfonylphenoxymethyl)pyridin-5-yl]piperidin-1-yl]-5-pentylpyrimidine] |
| 174 to 176 | CCCCCc1cnc(N2CCC(c3ccc(COc4ccc(-n5cnnn5)cc4)nc3)CC2)nc1 [Example 56, 5-Pentyl-2-[4-[2-[4-(tetrazol-1-yl)phenoxymethyl]pyridin-5-yl]piperidin-1-yl]pyrimidine] |
| 92 to 94 | CCCCCc1cnc(N2CCC(c3ccc(COc4ccc(C#N)c(F)c4)nc3)CC2)nc1 [Example 54, 2-[4-[2-(4-Cyano-3-fluorophenoxymethyl)pyridin-5-yl]piperidin-1-yl]-5-pentylpyrimidine] |
| 119 to 121 | CCOC(=O)N1CCC(c2ccc(COc3ccc(S(C)(=O)=O)cc3)nc2)CC1 [Example 43, Ethyl 4-[2-(4-methanesulfonylphenoxymethyl)pyridin-5-yl]piperidine-1-carboxylate] |
| 114 to 117 | CC(C)COC(=O)N1CCC(c2ccc(COc3ccc(S(C)(=O)=O)cc3)nc2)CC1 [Example 44, Isobutyl 4-[2-(4-methanesulfonylphenoxymethyl)pyridin-5-yl]piperidine-1-carboxylate] |
| 92 to 95 | CCOC(=O)c1ccc(OCc2ccc(C3CCN(C(=O)OC(C)(C)C)CC3)cn2)cc1F [Example 9, tert-Butyl 4-[2-(4-ethoxycarbonyl-3-fluorophenoxymethyl)pyridin-5-yl]piperidine-1-carboxylate] |
| 140 to 142 | CC(C)(C)CC(=O)N1CCC(c2ccc(COc3ccc(S(C)(=O)=O)cc3)nc2)CC1 [Example 46, 1-[4-[2-(4-Methanesulfonylphenoxymethyl)pyridin-5-yl]piperidin-1-yl]-3,3-dimethylbutan-1-one] |
| 94 to 96 | CC(C)(C)OC(=O)N1CCC(c2ccc(COc3cccc([N+](=O)[O-])c3)nc2)CC1 [Example 30, tert-Butyl 4-[2-(3-nitrophenoxymethyl)pyridin-5-yl]piperidine-1-carboxylate] |
| 153 to 154 | COc1cc(C2CCN(C(=O)OC(C)(C)C)CC2)cnc1COc1ccc(S(C)(=O)=O)cc1 [Example 67, tert-Butyl 4-[2-(4-methanesulfonylphenoxymethyl)-3-methoxypyridin-5-yl]piperidine-1-carboxylate] |

Target: T1, human GPR119 (Homo sapiens, UniProt Q8TDV5)
T1 construct: expressed in transfected cells
T1 sequence (Q8TDV5 1-335): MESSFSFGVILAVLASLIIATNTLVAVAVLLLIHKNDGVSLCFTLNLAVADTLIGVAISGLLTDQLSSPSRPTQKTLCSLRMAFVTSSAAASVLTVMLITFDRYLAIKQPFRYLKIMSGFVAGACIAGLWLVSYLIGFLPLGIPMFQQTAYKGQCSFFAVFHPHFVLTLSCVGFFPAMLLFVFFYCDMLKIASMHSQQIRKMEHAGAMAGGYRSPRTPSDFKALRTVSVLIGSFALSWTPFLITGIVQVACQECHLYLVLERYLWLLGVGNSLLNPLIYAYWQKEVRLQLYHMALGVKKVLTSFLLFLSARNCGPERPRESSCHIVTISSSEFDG
Assay: Intracellular cAMP increase in human GPR119 introduced cells (HitHunter cAMP XS+ Assay)
Format: cell-based
Conditions: Table 17; method similar to Example 86; hGPR119 stable cells, intracellular cAMP
Source text: The GPR119 agonist effect was studied by measuring the effect of an analyte on increase of intracellular amount of cAMP in human GPR119 introduced cells. The testing method is described below.
(1) Construction of the Stable Cell Line Expressing Human G Protein-Coupled-Receptor 119 (hGPR119) Human GPR119 gene (NM 178471) is purchased from American Type Culture Collection (ATCC No. 10807349). Hind III site-added forward side primer ([…]: sequence No. 1) and Apa I site-added reverse side primer ([…]: sequence No. 2) are designed. The target gene is amplyfied by a polymerase chain reaction (PCR) method using KOD-Plus-Ver. 2 (TOYOBO #KOD-211). PCR is conducted by repeating three steps consisting of the step of 98° C.-10 seconds, the step of 55° C.-30 seconds, and the step of 68° C.-1 minute and 10 seconds in 35 cycles. The amplified PCR product is inserted into pcDNA5/FRT/TO (Invitrogen #V6520-20) plasmid. Cells, which can constantly express the target gene with tetracycline, are constructed using Flp-In T-REx-systen (invitorogen).
(2) Measurement of Intracellular Cyclic Adenosine Monophosphate (cAMP)
The hGPR119 introduced cells prepared in (1) are plated on a 96-well plate using Dulbecco's Modified Eagle Medium containing heat-inactived 10% fetal bovine serum. After incubation of 24 hours, tetracyclin (invitrogen #Q10019) is added to the culture medium to induce hGPR119 gene expression. After further incubation of 24 hours, the cells are stimulated with 0.5 mM 3-ISOBUTYL-1-METHYLXANTHINE (Sigma #17018) phosphate buffer containing the analyte at 37° C. for 30 minutes. The amount of the intracellular cAMP is measured by using FLUOstar Optima (BMG LABTECH) according to the protocol of HitHunter™ cAMP XS+Assay (GE Healthcare #90007503) to give the agonist activity of the analyte to the GPR119 receptor.
(1) Construction of the Stable Cell Line Expressing Human G-Protein Coupled Receptor 119 (hGPR119) hGPR119 gene (NM 178471) was purchased from American Type Culture Collection (ATCC No. 10807349). The forward primer that was added a HindIII site ([…] (sequence number 1)), and the reverse primer that was added an ApaI site ([…] (sequence number 2)) were designed, the target gene was amplified by polymerase chain reaction (PCR) using a KOD-Plus-Ver.2 (TOYOBO #KOD-211). PCR was repeated 3 steps (98° C. for 10 sec, 55° C. for 30 sec, 68° C. for 1 min 15 sec) by 35 cycles. Amplified PCR product was inserted in pcDNA5/FRT/TO (Invitrogen #V6520-20), and the stable cell line that expresses target gene when induced with tetracycline was created using the Flp-In T-Rex system (Invitrogen).
(2) Measuring Method of Intracellular Cyclic Adenosine Monophosphate (cAMP) hGPR119 stable cells made by above-mentioned (1) were plated on 96 well plates in Dulbecco's Modified Eagle Medium containing 10% heat-inactivated FBS. After 24 hours, the hGPR119 expression was induced by adding medium containing tetracycline (Invitrogen #Q10019) and incubating for another 24 hours. Following incubation, cells were stimulated by 0.5 mM 3-ISOBUTYL-1-METHYLXANTHINE (Sigma #17018) phosphate buffered saline containing test compound for 30 minutes at 37° C. Agonist activity of test compound to the GPR119 receptor was estimated by measuring the intracellular cAMP concentration using a Fluostar optima plate reader (BMG LABTECH) according to the manufacturer's protocol of the HitHunter™ cAMP XS+Assay (GE Healthcare #90007503).
The examination was performed by the method similar to Example 86 (Pharmacological experiment 1)-(1), -(2).

| EC50 [µM] | SMILES |
| --- | --- |
| 0.0219 | Cc1cc(C2CCN(C(=O)OC(C)(C)C)CC2)cnc1COc1ccc(-n2cnnn2)cc1F [Example 83, tert-Butyl 4-[2-[2-fluoro-4-(tetrazol-1-yl)phenoxymethyl]-3-methylpyridin-5-yl]piperidine-1-carboxylate] |
| 0.0593 | CC(C)(C)OC(=O)N1CCC(c2ccc(COc3ccc(S(N)(=O)=O)cc3)nc2)CC1 [Example 21, tert-Butyl 4-[2-(4-sulfamoylphenoxymethyl)pyridin-5-yl]piperidine-1-carboxylate] |
| 0.0588 | Cc1cc(S(C)(=O)=O)ccc1OCc1ncc(C2CCN(C(=O)OC(C)(C)C)CC2)cc1C [Example 82, tert-Butyl 4-[2-(4-methanesulfonyl-2-methylphenoxymethyl)-3-methylpyridin-5-yl]piperidine-1-carboxylate] |
| 0.0392 | Cc1cc(C2CCN(C(=O)OC(C)(C)C)CC2)cnc1COc1ccc(S(C)(=O)=O)cc1Br [Example 81, tert-Butyl 4-[2-(2-bromo-4-methanesulfonylphenoxymethyl)-3-methylpyridin-5-yl]piperidine-1-carboxylate] |
| 0.257 | CCc1cnc(N2CCC(c3ccc(COc4ccc(-n5cnnn5)cc4)nc3)CC2)nc1 [Example 51, 5-Ethyl-2-[4-[2-[4-(tetrazol-1-yl)phenoxymethyl]pyridin-5-yl]piperidin-1-yl]pyrimidine] |
| 0.128 | CC(C)(C)OC(=O)N1CCC(c2ccc(CSc3ccc(S(C)(=O)=O)cc3)nc2)CC1 [Example 84, tert-Butyl 4-[2-(4-methanesulfonylphenylthiomethyl)pyridin-5-yl]piperidine-1-carboxylate] |
| 0.142 | CC(C)(C)OC(=O)N1CCC(c2ccc(CCc3ccc(S(C)(=O)=O)cc3)nc2)CC1 [Example 79, tert-Butyl 4-[2-[2-(4-methanesulfonylphenyl)ethyl]pyridin-5-yl]piperidine-1-carboxylate] |
| 0.024 | Cc1cc(S(C)(=O)=O)ccc1OCc1ccc(C2CCN(C(=O)OC(C)(C)C)CC2)cn1 [Example 22, tert-Butyl 4-[2-(4-methanesulfonyl-2-methylphenoxymethyl)pyridin-5-yl]piperidine-1-carboxylate] |
| 0.048 | CC(C)(C)OC(=O)N1CCC(c2cnc(COc3ccc(S(C)(=O)=O)cc3)c(C(F)(F)F)c2)CC1 [Example 73, tert-Butyl 4-[2-(4-methanesulfonylphenoxymethyl)-3-trifluoromethylpyridin-5-yl]piperidine-1-carboxylate] |
| 0.0293 | CC(C)(C)OC(=O)N1CCC(c2cnc(COc3ccc(S(C)(=O)=O)cc3)c(Cl)c2)CC1 [Example 71, tert-Butyl 4-[3-chloro-2-(4-methanesulfonylphenoxymethyl)pyridin-5-yl]piperidine-1-carboxylate] |
| 0.0547 | CC(C)(C)OC(=O)N1CCC(c2ccc(COc3ccc(S(C)(=O)=O)cc3F)nc2)CC1 [Example 12, tert-Butyl 4-[2-(2-fluoro-4-methanesulfonylphenoxymethyl)pyridin-5-yl]piperidine-1-carboxylate] |
| 0.0224 | CC(C)(C)OC(=O)N1CCC(c2cnc(COc3ccc(S(C)(=O)=O)cc3)c(F)c2)CC1 [Example 75, tert-Butyl 4-[3-fluoro-2-(4-methanesulfonylphenoxymethyl)pyridin-5-yl]piperidine-1-carboxylate] |
| 0.0806 | CC(C)(C)OC(=O)N1CCC(c2ccc(COc3ccc(-n4cnnn4)cc3F)nc2)CC1 [Example 37, tert-Butyl 4-[2-[2-fluoro-4-(tetrazol-1-yl)phenoxymethyl]pyridin-5-yl]piperidine-1-carboxylate] |
| 0.0212 | CC(C)(C)OC(=O)N1CCC(c2ccc(COc3ccc(S(C)(=O)=O)cc3Cl)nc2)CC1 [Example 25, tert-Butyl 4-[2-(2-chloro-4-methanesulfonylphenoxymethyl)pyridin-5-yl]piperidine-1-carboxylate] |
| 0.0854 | CC(C)(C)OC(=O)N1CCC(c2ccc(COc3ccc(S(C)(=O)=O)c(F)c3)nc2)CC1 [Example 18, tert-Butyl 4-[2-(3-fluoro-4-methanesulfonylphenoxymethyl)pyridin-5-yl]piperidine-1-carboxylate] |
| 0.034 | CC(C)(C)OC(=O)N1CCC(c2ccc(COc3ccc(-n4cnnn4)cc3)nc2)CC1 [Example 17, tert-Butyl 4-[2-[4-(tetrazol-1-yl)phenoxymethyl]pyridin-5-yl]piperidine-1-carboxylate] |

Same assay, conditions: hGPR119 introduced cells, cAMP

| GPR119 agonist effect (in words) | SMILES |
| --- | --- |
| excellent GPR119 agonist effect | Cc1cc(C2CCN(C(=O)OC(C)(C)C)CC2)cnc1COc1ccc(-n2cnnn2)cc1F [Example 83, tert-Butyl 4-[2-[2-fluoro-4-(tetrazol-1-yl)phenoxymethyl]-3-methylpyridin-5-yl]piperidine-1-carboxylate] |
| excellent GPR119 agonist effect | CC(C)(C)OC(=O)N1CCC(c2ccc(COc3ccc(S(C)(=O)=O)cc3Cl)nc2)CC1 [Example 25, tert-Butyl 4-[2-(2-chloro-4-methanesulfonylphenoxymethyl)pyridin-5-yl]piperidine-1-carboxylate] |
